Test results taken from US20100190105A1, “LITHOGRAPHIC PRINTING PLATE PRECURSOR” (Agfa Graphics NV, priority 2007, published 2010).

Assay: Absorption maximum of asymmetric sensitizers
Type: physicochemical
Text: The asymmetric sensitizers AS-02, AS-03, AS-04 and AS-05 were obtained using a similar preparation method. The asymmetric sensitizers AS-01 to AS-05 are given in Table 2 together with their absorption maximum (Abs.Max (nm)) and their melting point (° C.).

| Compound | Abs. Max [nm] |
| --- | --- |
| CCCCC(CC)COc1c(OC)cc(/C=C/c2ccc(/C=C/c3cc(OC)c(OC(C)CC)c(OC)c3)cc2)cc1OC (centres unmarked) [AS-01] | 371 |
| CCC(C)Oc1c(OC)cc(/C=C/c2ccc(/C=C/c3cc(OC)c(OC4CCCC4)c(OC)c3)cc2)cc1OC (centres unmarked) [AS-04] | 371 |
| CCC(C)Oc1c(OC)cc(/C=C/c2ccc(/C=C/c3cc(OC)c(OCCO)c(OC)c3)cc2)cc1OC (centres unmarked) [AS-05] | 371 |
| CCC(C)Oc1c(OC)cc(/C=C/c2ccc(/C=C/c3cc(OC)c(OC4CCCCC4)c(OC)c3)cc2)cc1OC (centres unmarked) [AS-03] | 371 |
| CCC(C)Oc1c(OC)cc(/C=C/c2ccc(/C=C/c3cc(OC)c(OC(CC)CC)c(OC)c3)cc2)cc1OC (centres unmarked) [AS-02] | 370 |
